Assay results from ChEMBL document CHEMBL5518185, “Design, synthesis and antitumor activity of 4-arylamine substituted pyrimidine derivatives as noncovalent EGFR inhibitors overcoming C797S mutation” (Eur J Med Chem, 2024).
The source made the active and inactive calls. No cut-off for these calls is given here.

Key:
[1] = target: Tyrosine-protein kinase ABL1 (Homo sapiens) (UniProt P00519); test: Inhibition of Abl (unknown origin) by HTRF assay relative to control; details: concentration not given here
Sequence of Tyrosine-protein kinase ABL1 (Homo sapiens) (P00519 whole entry): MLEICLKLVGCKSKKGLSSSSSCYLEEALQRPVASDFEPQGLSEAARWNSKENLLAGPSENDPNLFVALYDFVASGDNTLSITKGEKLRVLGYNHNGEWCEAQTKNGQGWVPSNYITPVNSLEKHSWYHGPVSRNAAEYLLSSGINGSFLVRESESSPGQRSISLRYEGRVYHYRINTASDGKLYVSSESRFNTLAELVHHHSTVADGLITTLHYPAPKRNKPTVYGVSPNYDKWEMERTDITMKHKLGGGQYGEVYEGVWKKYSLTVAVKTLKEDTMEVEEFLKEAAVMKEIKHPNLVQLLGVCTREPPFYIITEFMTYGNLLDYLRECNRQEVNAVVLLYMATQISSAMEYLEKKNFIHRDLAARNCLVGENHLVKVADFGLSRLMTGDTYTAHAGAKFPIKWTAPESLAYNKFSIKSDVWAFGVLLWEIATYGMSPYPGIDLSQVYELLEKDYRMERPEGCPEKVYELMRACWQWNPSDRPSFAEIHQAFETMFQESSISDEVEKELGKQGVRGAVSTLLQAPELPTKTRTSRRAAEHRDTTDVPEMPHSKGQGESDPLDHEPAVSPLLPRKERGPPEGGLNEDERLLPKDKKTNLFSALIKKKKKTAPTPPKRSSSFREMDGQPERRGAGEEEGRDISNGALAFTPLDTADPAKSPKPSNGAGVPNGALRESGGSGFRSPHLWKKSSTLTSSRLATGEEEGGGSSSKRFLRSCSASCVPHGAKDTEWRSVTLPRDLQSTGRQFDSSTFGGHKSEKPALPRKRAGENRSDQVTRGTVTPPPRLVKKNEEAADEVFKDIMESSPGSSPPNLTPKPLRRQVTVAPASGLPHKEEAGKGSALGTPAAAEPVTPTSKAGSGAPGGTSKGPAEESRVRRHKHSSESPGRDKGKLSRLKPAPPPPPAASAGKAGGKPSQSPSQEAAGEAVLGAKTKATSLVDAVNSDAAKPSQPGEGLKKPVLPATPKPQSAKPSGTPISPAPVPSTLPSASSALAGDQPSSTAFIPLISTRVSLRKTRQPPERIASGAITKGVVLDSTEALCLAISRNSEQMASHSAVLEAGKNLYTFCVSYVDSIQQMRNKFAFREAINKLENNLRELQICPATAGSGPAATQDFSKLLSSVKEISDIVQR

HCC827 [2] = test: Induction of cell cycle arrest in human HCC827 cells assessed as accumulation of cells at G0/G1 phase at 10 nM measured after 24 hrs by PI staining based flow cytometry analysis (reference value: 54.36%); type: functional
HCC827 [3] = test: Induction of apoptosis in human HCC827 cells assessed as activation of cleaved-PARP level measured after 48 hrs by Western blot analysis; type: functional, cell-based; details: dose 10-400 nM
[4] = Inhibition of ERK (unknown origin) by HTRF assay relative to control; details: Homo sapiens; concentration not given here
HCC827 [5] = test: Antitumor activity against human HCC827 cells xenografted in BALB/c nude mouse assessed as tumor growth inhibition at 50 mg/kg/day, po measured every three days for 21 days by vernier caliper based analysis relative to control; type: functional; details: HCC827, 504 h, time 21 day, read-out: TGI
[6] = Cytotoxicity against human L02 cells assessed as inhibition of cell viability measured after 72 hrs by MTT assay; type: toxicity, cell-based
[7] = target: Insulin-like growth factor 1 receptor (Homo sapiens) (UniProt P08069); test: Inhibition of IGF-1R (unknown origin) by HTRF assay relative to control; details: concentration not given here
Sequence of Insulin-like growth factor 1 receptor (Homo sapiens) (P08069 31-736 limits assumed): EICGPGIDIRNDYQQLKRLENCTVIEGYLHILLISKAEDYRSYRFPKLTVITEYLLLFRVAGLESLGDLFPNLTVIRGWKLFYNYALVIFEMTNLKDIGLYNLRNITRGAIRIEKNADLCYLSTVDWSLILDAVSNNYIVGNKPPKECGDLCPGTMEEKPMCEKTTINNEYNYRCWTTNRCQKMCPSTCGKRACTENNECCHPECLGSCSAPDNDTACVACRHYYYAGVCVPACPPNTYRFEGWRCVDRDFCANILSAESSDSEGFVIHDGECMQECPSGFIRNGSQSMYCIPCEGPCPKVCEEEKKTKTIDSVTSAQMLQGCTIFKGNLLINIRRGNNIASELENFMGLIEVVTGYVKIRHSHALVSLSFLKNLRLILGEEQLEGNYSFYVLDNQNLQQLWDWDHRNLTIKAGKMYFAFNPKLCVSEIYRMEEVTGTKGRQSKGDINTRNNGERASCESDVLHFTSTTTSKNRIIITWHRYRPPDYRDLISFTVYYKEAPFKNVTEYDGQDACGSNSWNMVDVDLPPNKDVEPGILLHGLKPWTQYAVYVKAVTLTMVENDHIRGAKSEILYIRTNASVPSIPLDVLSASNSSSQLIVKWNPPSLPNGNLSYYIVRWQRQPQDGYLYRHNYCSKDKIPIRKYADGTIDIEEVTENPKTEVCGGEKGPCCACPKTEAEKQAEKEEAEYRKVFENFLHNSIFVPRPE
Sequence of Insulin-like growth factor 1 receptor (Homo sapiens) (P08069 741-1367 limits assumed): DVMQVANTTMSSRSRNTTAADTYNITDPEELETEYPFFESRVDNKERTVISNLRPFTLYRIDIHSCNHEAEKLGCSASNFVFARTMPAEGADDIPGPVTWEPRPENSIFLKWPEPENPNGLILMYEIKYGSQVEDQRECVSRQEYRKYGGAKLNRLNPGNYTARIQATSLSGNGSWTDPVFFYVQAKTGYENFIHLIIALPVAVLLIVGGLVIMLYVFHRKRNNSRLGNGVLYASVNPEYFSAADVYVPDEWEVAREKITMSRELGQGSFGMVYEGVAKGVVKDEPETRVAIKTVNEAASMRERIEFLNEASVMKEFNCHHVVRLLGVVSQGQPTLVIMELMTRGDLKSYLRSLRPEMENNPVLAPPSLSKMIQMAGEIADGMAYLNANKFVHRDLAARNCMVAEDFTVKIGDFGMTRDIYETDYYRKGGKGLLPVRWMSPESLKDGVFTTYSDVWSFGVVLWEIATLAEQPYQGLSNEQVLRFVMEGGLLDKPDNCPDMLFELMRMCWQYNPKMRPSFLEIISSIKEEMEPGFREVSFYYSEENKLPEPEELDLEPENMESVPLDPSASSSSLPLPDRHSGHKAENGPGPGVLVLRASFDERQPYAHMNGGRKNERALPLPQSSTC

[8] = target: Dual specificity mitogen-activated protein kinase kinase; MEK1/2 (Homo sapiens) (UniProt P36507+Q02750); test: Inhibition of MEK1/2 (unknown origin) by HTRF assay relative to control; type: protein assay; details: concentration not given here
[9] = target: Serine/threonine-protein kinase mTOR (Homo sapiens) (UniProt P42345); test: Inhibition of mTOR (unknown origin) by HTRF assay relative to control; details: concentration not given here
[10] = target: Platelet-derived growth factor receptor alpha (Homo sapiens) (UniProt P16234); test: Inhibition of PDGFR alpha (unknown origin) by HTRF assay relative to control; details: concentration not given here
Homo sapiens [11] = species on record: Homo sapiens; test: Inhibition of FGFR (unknown origin) by HTRF assay relative to control; details: concentration not given here
A549 = test: Antiproliferative activity against human A549 cells assessed as inhibition of cell growth measured after 72 hrs by MTT assay; type: functional, cell-based; details: A549, 72 h
[12] = target: Epidermal growth factor receptor (Homo sapiens, UniProt P00533, EX19DEL/T790M); test: Inhibition of EGFR Del19/T790M (unknown origin) preincubated for 10 mins followed by substrate addition and measured after 50 mins in presence of ATP by HTRF assay
[13] = target: Mitogen-activated protein kinase; ERK1/ERK2 (Homo sapiens) (UniProt P27361+P28482); test: Inhibition of ERK1/2 phosphorylation (unknown origin) at 100 nM by Western blotting analysis; type: protein assay
Sequence of Mitogen-activated protein kinase; ERK1/ERK2 (Homo sapiens) (P27361 whole entry, looked up): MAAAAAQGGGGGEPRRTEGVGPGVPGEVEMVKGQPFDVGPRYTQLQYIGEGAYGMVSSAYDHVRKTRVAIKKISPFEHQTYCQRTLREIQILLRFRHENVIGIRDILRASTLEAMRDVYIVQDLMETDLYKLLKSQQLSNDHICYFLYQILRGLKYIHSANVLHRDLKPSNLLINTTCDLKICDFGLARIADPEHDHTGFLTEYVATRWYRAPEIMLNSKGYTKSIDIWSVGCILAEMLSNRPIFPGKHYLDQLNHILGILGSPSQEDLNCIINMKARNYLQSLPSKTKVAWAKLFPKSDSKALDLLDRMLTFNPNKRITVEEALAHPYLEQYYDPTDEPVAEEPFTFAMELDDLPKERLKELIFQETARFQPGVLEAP
Sequence of Mitogen-activated protein kinase; ERK1/ERK2 (Homo sapiens) (P28482 whole entry, looked up): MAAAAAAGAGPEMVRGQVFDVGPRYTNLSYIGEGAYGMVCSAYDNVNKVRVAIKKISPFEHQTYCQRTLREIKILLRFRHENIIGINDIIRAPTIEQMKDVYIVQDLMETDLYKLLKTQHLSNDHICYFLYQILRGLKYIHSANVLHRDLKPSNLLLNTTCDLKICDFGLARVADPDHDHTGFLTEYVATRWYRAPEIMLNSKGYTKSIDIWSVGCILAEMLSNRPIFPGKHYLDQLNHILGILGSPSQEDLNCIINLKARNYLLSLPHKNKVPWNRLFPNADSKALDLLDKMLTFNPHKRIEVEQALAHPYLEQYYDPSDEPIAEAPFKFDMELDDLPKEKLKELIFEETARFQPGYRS

HCC827 [14] = test: Antiproliferative activity against human HCC827 cells assessed as inhibition of cell growth measured after 72 hrs by MTT assay; type: functional, cell-based; details: HCC827, 72 h
HCC827 [15] = test: Inhibition of cell migration in human HCC827 cells at 10 to 100 nM measured upto 24 hrs by scratch-wound assay; type: functional, cell-based; details: dose 10-100 nM
NCI-H1975 = test: Antiproliferative activity against human NCI-H1975 cells assessed as inhibition of cell growth measured after 72 hrs by MTT assay; type: functional, cell-based; details: NCI-H1975, 72 h
HCC827 [16] = test: Induction of apoptosis in human HCC827 cells assessed as late apoptotic cells at 100 nM measured after 24 hrs by annexin V/PI staining based flu cytometry analysis (reference value: 5.50%); type: functional
HCC827 [17] = test: Induction of cell cycle arrest in human HCC827 cells assessed as accumulation of cells at G2/M phase at 100 nM measured after 24 hrs by PI staining based flow cytometry analysis (reference value: 16.83%); type: functional
[18] = tested on: Epidermal growth factor receptor (Homo sapiens), P00533 [UNDEFINED MUTATION]; details: dose 30.0 nM
HCC827 [19] = test: Induction of cell cycle arrest in human HCC827 cells assessed as accumulation of cells at G0/G1 phase at 100 nM measured after 24 hrs by PI staining based flow cytometry analysis (reference value: 54.36%); type: functional
[20] = target: Epidermal growth factor receptor (Homo sapiens, UniProt P00533, C797S/EX19DEL/T790M); test: Inhibition of EGFR Del19/T790M/C797S triple mutant (unknown origin) preincubated for 10 mins followed by substrate addition and measured after 50 mins in presence of ATP by HTRF assay
[21] = target: Tyrosine-protein kinase BTK (Homo sapiens) (UniProt Q06187); test: Inhibition of BTK (unknown origin) by HTRF assay relative to control; details: concentration not given here
Sequence of Tyrosine-protein kinase BTK (Homo sapiens) (Q06187 whole entry): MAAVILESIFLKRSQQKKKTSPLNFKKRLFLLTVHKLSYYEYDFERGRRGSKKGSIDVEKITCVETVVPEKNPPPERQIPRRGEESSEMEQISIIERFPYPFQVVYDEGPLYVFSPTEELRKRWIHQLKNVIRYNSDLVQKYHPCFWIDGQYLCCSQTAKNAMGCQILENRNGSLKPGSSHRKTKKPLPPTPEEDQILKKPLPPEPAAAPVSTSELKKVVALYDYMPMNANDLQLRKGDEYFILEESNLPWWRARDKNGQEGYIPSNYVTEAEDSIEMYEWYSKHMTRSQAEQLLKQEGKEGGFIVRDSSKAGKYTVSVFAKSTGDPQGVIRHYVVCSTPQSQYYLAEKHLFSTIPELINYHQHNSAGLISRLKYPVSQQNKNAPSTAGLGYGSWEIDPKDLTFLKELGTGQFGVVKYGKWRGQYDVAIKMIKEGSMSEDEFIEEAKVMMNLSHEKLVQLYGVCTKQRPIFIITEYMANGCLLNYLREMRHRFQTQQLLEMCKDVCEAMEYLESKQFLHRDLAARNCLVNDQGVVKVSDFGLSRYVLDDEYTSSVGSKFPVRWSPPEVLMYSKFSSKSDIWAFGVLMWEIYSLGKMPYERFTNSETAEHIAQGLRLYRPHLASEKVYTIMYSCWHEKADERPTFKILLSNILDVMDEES

[22] = Toxicity in BALB/c nude mouse assessed as effect on body weight loss at 10 to 50 mg/kg/day, po measured every three days for 21 days; type: organism-based; details: in vivo, 504 h, dose 10-50 mg/kg/day, time 21 day
HCC827 [23] = test: Induction of apoptosis in human HCC827 cells assessed as activation of caspase-3 level measured after 48 hrs by Western blot analysis; type: functional, cell-based; details: dose 10-400 nM
[24] = target: T1, Epidermal growth factor receptor (Homo sapiens, UniProt P00533); details: dose 100.0 nM
T1 sequence (P00533 whole entry): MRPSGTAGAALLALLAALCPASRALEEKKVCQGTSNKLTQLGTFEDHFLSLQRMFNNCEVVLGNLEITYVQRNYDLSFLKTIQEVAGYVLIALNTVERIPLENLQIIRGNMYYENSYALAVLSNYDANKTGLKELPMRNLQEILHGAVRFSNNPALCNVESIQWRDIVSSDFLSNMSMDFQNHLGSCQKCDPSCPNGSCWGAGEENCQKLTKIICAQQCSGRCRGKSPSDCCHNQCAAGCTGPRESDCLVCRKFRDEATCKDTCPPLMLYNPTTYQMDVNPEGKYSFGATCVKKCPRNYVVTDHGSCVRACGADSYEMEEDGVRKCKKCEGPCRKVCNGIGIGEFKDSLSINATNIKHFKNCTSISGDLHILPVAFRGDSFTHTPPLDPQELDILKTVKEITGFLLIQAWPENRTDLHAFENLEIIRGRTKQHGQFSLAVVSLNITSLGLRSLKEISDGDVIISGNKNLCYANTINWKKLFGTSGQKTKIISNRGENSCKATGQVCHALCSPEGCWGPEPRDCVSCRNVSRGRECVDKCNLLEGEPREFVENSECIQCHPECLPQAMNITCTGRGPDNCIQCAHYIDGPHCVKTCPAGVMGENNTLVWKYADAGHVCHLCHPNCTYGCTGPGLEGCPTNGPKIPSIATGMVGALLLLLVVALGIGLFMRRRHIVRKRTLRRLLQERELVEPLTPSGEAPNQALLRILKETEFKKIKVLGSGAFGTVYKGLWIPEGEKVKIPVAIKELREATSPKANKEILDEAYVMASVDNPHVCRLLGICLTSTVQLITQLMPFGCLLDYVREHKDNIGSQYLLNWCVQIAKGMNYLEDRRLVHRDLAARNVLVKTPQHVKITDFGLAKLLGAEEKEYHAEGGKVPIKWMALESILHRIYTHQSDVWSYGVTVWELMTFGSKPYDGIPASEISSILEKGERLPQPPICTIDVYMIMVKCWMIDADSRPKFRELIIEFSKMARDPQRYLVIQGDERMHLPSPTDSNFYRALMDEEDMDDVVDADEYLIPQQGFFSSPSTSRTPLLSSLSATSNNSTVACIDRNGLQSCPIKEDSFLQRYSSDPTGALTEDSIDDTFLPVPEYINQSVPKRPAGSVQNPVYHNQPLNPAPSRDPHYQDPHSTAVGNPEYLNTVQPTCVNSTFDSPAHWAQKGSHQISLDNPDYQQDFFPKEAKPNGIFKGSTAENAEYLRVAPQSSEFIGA
Description: Inhibition of EGFR phosphorylation (unknown origin) at 100 nM by Western blotting analysis

HCC827 [25] = test: Induction of cell cycle arrest in human HCC827 cells assessed as accumulation of cells at G2/M phase at 10 nM measured after 24 hrs by PI staining based flow cytometry analysis (reference value: 16.83%); type: functional
HCC827 [26] = test: Induction of apoptosis in human HCC827 cells assessed as early apoptotic cells at 30 nM measured after 24 hrs by annexin V/PI staining based flu cytometry analysis (reference value: 3.2%); type: functional
Homo sapiens [27] = species on record: Homo sapiens; test: Inhibition of AKT phosphorylation (unknown origin) at 100 nM by Western blotting analysis
HCC827 [28] = test: Induction of apoptosis in human HCC827 cells assessed as early apoptotic cells at 10 nM measured after 24 hrs by annexin V/PI staining based flu cytometry analysis (reference value: 3.2%); type: functional
HCC827 [29] = test: Inhibition of colony formation in human HCC827 cells at 100 nM measured after 14 days by crystal violet staining based analysis relative to control; type: functional; details: HCC827, 336 h, time 14 day
[30] = target: T1, Epidermal growth factor receptor; test: Inhibition of wild type EGFR (unknown origin) at 100 nM preincubated for 10 mins followed by substrate addition and measured after 50 mins in presence of ATP by HTRF assay relative to control; details: time 60.0 min
HCC827 [31] = test: Induction of apoptosis in human HCC827 cells assessed as viable cells at 30 nM measured after 24 hrs by annexin V/PI staining based flu cytometry analysis (reference value: 84.0%); type: functional; details: read-out: Activity
[32] = target: Epidermal growth factor receptor (Homo sapiens, UniProt P00533, C797S/L858R/T790M); test: Inhibition of EGFR L858R/T790M/C797S triple mutant (unknown origin) preincubated for 10 mins followed by substrate addition and measured after 50 mins in presence of ATP by HTRF assay
Homo sapiens [33] = species on record: Homo sapiens; test: Inhibition of VGFR (unknown origin) by HTRF assay relative to control; details: concentration not given here

With `O=C(NO)c1sccc1Nc1nc(Nc2ccc(N3CCOCC3)cc2)ncc1Cl` the inhibition [1] was less than 70%, the Activity (HCC827 [2]) was 66.03% and the Activity (HCC827 [3]) was “Dose-Dependent Effect”. The inhibition [4] was less than 70%, the inhibition in vivo at 50 mg/kg/day (HCC827 [5]) was 89.5% and the IC50 at 72 h [6] was 2450 nM. The inhibition [7] was less than 70%, the inhibition [8] was less than 70% and the inhibition [9] was less than 70%. It also gave an inhibition [10] of less than 70%, an inhibition (Homo sapiens [11]) of less than 70% and an IC50 (A549) of 703 nM. For the same compound, the IC50 [12] was 214 nM, the inhibition [13] was “Active” and the IC50 (HCC827 [14]) was 25 nM. For the same compound, the inhibition (HCC827 [15]) was “Active”, the IC50 (NCI-H1975) was 168 nM and the Activity (HCC827 [16]) was 14.3%. The Activity (HCC827 [17]) was 46.13%, the inhibition [18] was 61.9% and the Activity (HCC827 [19]) was 44.23%. The IC50 [20] was 16.1 nM, the inhibition [21] was less than 70% and the Activity [22] was “Non-Toxic”. The Activity (HCC827 [23]) was “Dose-Dependent Effect”, the inhibition [24] was “Active” and the Activity (HCC827 [25]) was 17.56%. The Activity (HCC827 [26]) was 11.4%, the inhibition (Homo sapiens [27]) was “Active” and the Activity (HCC827 [28]) was 9.96%. For the same compound, the inhibition at 0.1 µM (HCC827 [29]) was 100%, the inhibition [30] was 99.5% and the viability at 0.03 µM (HCC827 [31]) was 70.7%. For the same compound, the IC50 [32] was 11.8 nM and the inhibition (Homo sapiens [33]) was less than 70%.
